Measurements from ChEMBL document CHEMBL5465560, “Selectivity Literature for EUbOPEN Chemogenomic Library” (2024).
Blank lines part the entries; values can stand above or below the compound they belong to.

Columns and labels:
[1] = target: L-type calcium channel Cav1.2 (CACNA1C) (Homo sapiens, UniProt Q13936); assay: Selectivity interaction (Eurofins CEREP Diversity Profile (receptors and ion channels)) EUB0000279b CACNA1C; settings: at 10 µM, read-out: % of control
[2] = target: Mitogen-activated protein kinase kinase kinase kinase 4 (Homo sapiens, UniProt O95819); assay: Selectivity interaction (KinomeScan (DiscoverX)) EUB0000655a MAP4K4; settings: at 10 µM
[3] = target: T1, Dual specificity mitogen-activated protein kinase kinase 3 (Homo sapiens) (UniProt P46734); assay: Selectivity interaction (KinomeScan (DiscoverX)) EUB0000655a MAP2K3; settings: at 10 µM
T1 sequence (whole entry): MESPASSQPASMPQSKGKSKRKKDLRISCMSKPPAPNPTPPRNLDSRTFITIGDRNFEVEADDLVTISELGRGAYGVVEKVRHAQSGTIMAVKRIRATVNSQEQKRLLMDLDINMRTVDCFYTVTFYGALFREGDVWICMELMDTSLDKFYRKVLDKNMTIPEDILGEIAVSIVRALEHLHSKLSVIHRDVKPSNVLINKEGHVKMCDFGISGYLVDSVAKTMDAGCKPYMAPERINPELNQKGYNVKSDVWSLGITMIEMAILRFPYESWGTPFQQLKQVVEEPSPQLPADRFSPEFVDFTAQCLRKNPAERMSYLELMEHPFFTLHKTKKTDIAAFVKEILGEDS

[4] = target: T2, Serine/threonine-protein kinase Nek5 (Homo sapiens) (UniProt Q6P3R8); assay: Selectivity interaction (KinomeScan (DiscoverX)) EUB0000607a NEK5; settings: at 10 µM
T2 sequence (whole entry): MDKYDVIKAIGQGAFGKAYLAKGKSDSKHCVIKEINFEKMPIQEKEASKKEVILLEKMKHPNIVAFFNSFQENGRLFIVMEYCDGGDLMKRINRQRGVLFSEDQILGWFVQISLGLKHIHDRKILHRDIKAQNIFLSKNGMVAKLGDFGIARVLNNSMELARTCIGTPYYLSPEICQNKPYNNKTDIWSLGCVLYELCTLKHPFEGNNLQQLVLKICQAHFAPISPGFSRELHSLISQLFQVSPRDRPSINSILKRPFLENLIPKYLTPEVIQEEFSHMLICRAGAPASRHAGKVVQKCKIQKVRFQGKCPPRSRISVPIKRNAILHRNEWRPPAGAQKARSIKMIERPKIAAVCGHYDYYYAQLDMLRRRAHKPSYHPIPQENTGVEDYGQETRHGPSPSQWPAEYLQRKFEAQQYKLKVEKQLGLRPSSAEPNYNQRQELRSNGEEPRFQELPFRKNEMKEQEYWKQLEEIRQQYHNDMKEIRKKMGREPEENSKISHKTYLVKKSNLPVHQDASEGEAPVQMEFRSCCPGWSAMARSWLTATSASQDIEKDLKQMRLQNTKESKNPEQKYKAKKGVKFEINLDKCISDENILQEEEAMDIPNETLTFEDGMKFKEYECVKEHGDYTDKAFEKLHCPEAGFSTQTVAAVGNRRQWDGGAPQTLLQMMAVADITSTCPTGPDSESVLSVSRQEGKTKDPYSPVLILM

[5] = target: Serine/threonine-protein kinase Nek7 (Homo sapiens) (UniProt Q8TDX7); assay: Selectivity interaction (Upstate Kinase Profiler service (Millipore)) EUB0000056c NEK7; settings: at 1 µM
[6] = target: T3, Tyrosine-protein kinase TXK (Homo sapiens) (UniProt P42681); assay: Selectivity interaction (KinomeScan (DiscoverX)) EUB0000092b TXK; settings: at 10 µM
T3 sequence (whole entry): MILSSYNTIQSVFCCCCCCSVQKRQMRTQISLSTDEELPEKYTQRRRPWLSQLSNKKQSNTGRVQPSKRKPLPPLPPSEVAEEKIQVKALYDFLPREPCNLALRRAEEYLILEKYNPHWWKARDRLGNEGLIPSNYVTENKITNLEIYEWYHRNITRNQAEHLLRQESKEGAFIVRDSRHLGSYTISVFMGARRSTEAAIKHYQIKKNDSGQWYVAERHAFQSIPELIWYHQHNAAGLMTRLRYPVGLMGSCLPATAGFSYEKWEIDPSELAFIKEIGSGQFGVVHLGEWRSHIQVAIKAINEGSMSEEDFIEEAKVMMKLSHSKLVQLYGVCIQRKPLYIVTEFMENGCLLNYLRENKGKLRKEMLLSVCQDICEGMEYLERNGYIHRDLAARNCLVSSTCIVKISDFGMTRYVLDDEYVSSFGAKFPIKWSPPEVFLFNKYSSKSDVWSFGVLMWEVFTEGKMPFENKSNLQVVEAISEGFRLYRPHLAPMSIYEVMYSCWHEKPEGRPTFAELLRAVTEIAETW

[7] = target: T4, Dual specificity mitogen-activated protein kinase kinase 5 (Homo sapiens) (UniProt Q13163); assay: Selectivity interaction (LanthaScreen Eu Kinase Binding Assay) EUB0001632a MAP2K5; settings: at 10 µM
T4 sequence (whole entry): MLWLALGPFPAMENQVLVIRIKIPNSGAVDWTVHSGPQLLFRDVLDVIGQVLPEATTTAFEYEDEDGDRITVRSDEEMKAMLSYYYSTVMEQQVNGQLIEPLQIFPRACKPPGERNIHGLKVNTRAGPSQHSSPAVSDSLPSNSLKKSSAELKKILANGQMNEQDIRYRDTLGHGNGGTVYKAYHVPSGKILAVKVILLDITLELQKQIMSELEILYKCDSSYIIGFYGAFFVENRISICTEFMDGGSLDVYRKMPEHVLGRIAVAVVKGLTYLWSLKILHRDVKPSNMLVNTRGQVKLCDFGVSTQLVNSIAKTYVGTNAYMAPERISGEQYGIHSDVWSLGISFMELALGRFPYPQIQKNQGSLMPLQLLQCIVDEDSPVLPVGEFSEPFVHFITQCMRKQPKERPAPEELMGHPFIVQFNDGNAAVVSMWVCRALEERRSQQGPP

[8] = target: Cyclin-dependent kinase 9 (Homo sapiens, UniProt P50750); assay: Selectivity interaction (LanthaScreen Eu Kinase Binding Assay) EUB0001632a CDK9; settings: at 10 µM
Sequence of Cyclin-dependent kinase 9 (P50750 whole entry): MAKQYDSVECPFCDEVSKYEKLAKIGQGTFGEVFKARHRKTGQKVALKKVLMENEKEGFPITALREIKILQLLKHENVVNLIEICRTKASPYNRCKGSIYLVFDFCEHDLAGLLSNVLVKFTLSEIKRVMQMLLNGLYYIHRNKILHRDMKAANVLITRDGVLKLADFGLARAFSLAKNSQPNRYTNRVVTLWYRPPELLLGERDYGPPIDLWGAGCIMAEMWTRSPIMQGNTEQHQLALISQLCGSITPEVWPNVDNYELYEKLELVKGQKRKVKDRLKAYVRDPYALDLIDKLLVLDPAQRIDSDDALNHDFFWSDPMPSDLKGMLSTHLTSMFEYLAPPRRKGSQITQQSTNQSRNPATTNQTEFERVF

Sequence of L-type calcium channel Cav1.2 (CACNA1C) (Q13936 whole entry): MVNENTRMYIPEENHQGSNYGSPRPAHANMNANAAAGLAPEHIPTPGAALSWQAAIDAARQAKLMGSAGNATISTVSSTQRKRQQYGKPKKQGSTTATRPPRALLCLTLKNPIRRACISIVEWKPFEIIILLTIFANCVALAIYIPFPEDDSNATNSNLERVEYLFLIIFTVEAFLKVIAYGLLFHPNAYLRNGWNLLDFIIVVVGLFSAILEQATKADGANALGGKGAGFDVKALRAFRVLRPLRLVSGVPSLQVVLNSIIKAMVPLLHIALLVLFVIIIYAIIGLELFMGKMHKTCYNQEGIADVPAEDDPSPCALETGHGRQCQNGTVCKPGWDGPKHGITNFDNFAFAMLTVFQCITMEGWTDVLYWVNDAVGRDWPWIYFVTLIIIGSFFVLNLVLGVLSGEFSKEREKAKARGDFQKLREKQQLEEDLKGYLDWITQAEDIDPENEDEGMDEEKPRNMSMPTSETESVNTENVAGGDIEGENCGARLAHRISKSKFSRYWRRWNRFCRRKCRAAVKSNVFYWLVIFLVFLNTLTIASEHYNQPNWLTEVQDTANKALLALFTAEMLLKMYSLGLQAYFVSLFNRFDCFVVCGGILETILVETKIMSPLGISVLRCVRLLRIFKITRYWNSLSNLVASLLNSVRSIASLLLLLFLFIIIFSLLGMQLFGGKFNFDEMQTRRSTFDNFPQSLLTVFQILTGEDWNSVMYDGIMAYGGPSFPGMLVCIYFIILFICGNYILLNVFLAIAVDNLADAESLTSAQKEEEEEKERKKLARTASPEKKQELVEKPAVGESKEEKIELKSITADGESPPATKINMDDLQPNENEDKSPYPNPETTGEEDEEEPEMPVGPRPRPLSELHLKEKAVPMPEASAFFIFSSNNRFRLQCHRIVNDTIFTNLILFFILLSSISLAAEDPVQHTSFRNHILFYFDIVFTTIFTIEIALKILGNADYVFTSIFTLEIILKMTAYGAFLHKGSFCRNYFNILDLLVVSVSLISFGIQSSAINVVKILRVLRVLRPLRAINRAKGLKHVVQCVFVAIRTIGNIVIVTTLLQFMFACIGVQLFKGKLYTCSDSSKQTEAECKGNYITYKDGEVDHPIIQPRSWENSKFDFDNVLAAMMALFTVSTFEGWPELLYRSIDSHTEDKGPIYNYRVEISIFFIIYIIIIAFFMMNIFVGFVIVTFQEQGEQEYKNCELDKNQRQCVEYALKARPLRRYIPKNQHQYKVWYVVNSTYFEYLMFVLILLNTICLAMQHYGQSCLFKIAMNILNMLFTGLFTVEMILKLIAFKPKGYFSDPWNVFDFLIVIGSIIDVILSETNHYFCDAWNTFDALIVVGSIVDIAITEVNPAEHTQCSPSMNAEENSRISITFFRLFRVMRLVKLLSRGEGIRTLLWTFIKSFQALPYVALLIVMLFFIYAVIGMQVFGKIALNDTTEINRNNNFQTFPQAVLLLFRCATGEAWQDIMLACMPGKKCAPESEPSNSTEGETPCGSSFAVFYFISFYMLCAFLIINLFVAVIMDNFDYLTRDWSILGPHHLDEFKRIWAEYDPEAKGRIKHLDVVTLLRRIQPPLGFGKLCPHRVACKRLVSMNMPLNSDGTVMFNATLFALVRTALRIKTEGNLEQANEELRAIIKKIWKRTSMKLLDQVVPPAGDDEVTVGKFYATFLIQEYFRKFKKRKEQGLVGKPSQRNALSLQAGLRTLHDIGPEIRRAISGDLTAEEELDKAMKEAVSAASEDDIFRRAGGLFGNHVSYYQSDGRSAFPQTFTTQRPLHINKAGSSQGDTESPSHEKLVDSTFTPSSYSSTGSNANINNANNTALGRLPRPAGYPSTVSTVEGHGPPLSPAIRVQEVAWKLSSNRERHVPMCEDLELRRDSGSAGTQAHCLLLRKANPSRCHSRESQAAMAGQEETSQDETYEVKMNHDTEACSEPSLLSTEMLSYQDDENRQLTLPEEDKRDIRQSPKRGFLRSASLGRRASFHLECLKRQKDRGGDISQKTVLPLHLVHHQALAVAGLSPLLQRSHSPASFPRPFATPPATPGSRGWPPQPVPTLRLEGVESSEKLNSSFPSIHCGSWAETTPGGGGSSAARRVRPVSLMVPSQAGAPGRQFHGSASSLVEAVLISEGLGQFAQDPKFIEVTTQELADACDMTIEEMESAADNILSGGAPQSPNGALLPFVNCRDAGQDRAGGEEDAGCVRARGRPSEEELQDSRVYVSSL
Sequence of Serine/threonine-protein kinase Nek7 (Homo sapiens) (Q8TDX7 whole entry, looked up): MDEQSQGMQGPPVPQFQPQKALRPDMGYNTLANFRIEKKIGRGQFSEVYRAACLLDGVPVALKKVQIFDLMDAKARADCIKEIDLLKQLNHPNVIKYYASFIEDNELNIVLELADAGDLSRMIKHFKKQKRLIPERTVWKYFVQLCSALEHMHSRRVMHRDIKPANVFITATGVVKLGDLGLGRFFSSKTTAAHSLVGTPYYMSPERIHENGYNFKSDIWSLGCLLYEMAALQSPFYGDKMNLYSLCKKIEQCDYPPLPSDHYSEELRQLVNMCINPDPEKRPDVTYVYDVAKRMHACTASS
Sequence of Mitogen-activated protein kinase kinase kinase kinase 4 (O95819 2-1239 limits assumed): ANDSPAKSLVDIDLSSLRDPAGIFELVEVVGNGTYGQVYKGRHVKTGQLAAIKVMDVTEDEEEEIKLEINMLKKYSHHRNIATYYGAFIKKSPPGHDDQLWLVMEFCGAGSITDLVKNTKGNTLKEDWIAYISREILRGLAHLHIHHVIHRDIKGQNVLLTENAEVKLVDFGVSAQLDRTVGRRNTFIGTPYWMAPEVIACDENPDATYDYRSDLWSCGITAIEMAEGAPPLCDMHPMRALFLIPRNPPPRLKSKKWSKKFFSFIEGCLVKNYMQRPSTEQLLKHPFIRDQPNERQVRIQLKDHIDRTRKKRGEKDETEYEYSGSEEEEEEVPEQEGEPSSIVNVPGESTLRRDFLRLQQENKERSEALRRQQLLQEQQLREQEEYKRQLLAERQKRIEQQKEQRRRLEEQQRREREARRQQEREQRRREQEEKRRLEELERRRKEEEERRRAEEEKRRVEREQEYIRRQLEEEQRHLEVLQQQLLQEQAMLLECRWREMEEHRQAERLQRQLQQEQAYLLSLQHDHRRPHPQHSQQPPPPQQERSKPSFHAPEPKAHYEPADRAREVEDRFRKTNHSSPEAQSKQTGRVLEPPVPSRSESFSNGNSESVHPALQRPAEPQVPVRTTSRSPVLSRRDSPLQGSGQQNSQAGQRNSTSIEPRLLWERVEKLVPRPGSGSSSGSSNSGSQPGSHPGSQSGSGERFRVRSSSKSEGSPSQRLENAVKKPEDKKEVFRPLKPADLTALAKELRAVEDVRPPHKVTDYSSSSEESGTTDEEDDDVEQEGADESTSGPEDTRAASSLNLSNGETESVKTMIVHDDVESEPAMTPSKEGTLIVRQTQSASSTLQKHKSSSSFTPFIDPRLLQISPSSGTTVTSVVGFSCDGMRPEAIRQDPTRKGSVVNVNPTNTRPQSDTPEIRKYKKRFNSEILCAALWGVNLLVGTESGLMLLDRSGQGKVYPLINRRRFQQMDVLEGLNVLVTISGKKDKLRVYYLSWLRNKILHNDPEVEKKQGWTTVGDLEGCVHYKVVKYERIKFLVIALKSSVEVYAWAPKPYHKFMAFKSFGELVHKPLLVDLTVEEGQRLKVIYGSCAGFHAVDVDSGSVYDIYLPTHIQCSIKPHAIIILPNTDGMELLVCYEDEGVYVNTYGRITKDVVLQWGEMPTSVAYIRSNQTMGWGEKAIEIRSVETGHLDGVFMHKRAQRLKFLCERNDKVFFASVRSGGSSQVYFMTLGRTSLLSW

SMILES: CC(=O)c1cc(-c2ccccc2OCC2CC2)c2ncccn12
activity [1]: 21%

SMILES: CN(C)CCOc1ccc(-c2nc(-c3ccncc3)c(-c3ccc4c(c3)CC/C4=N\O)[nH]2)cc1
% of control [2]: 27% | % of control [3]: 84%

SMILES: CNC(=O)Nc1ccc(-c2nc(N3CC4CCC(C3)O4)c3cnn(C4CCC5(CC4)OCCO5)c3n2)cc1
% of control [4]: 81%

% of inhibition [5]: -3%
SMILES: Cc1ccc(-c2ccc3c(ccc4sc5c(c43)NC[C@@H](C)NC5=O)n2)cn1

SMILES: CCC(=O)N1CCN(c2ccc(-n3c(=O)ccc4cnc5ccc(-c6cnc7ccccc7c6)cc5c43)cc2C(F)(F)F)CC1
% of control [6]: 54%

% of inhibition [7]: 0.023% | % of inhibition [8]: -166%
SMILES: Cn1cc(-n2cnc3c(NCc4nc5cc(Cl)c(Cl)cc5[nH]4)nc(N4CCOCC4)nc32)cn1
